PubChem BioAssay AID743476 (The Scripps Research Institute Molecular Screening Center, 2014)
Active and inactive are the calls of the source. The rule behind the calls is not given here.

Test system: CCHF-vOTU
Experiment: PubChem AID 743476
Details: Recombinant CCHFV vOTU, PEP-AMC fluorescence cleavage, with PEP-AMC substrate, active compounds read high

## COc1cc(C(=O)c2nccc3cc(OC)c(OC)cc23)c([N+](=O)[O-])cc1OC
Assay 1, at 1.05 µM
  inhibition: 6.05% (inactive)
Assay 2, at 1.05 µM
  inhibition: 15% (inactive)
Assay 3, at 2.1 µM
  inhibition: 17.8% (inactive)

## CC1COCC(C)N1C1=C(Cl)C(=O)c2ccccc2C1=O (configuration not stated)
Assay 1, at 5.07 µM
  inhibition: 0.67% (inactive)
Assay 2, at 5.07 µM
  inhibition: 14% (inactive)
Assay 3, at 10.14 µM
  inhibition: 17.6% (inactive)

## CCc1cc[n+](C2=C(NS(=O)(=O)c3cccs3)C(=O)c3ccccc3C2=O)cc1
Assay 1, at 4.39 µM
  inhibition: 13.7% (inactive)
Assay 2, at 4.39 µM
  inhibition: 18.6% (inactive)
Assay 3, at 8.78 µM
  inhibition: 37.9%

## O=C(NC1=CC(=O)c2ccccc2C1=O)c1ccccc1
Assay 1, at 3.85 µM
  inhibition: 5.25% (inactive)
Assay 2, at 3.85 µM
  inhibition: 9.67% (inactive)
Assay 3, at 7.7 µM
  inhibition: 16.4% (inactive)

## NS(=O)(=O)c1ccc(NC2=CC(=O)C(=O)c3ccccc32)cc1
Assay 1, at 4.85 µM
  inhibition: 6.01% (inactive)
Assay 2, at 4.85 µM
  inhibition: 30.6%

## Cc1cnc(C2OCCO2)c2cccc(N)c12
Assay 1, at 2.56 µM
  inhibition: 16.2% (inactive)
Assay 2, at 2.56 µM
  inhibition: 0.6% (inactive)
Assay 3, at 5.12 µM
  inhibition: 1% (inactive)

## CC1CCCC(NC(=O)COC(=O)c2ccc([N+](=O)[O-])s2)C1C (configuration not stated)
Assay 1, at 9.22 µM
  inhibition: 37.2%
Assay 2, at 9.22 µM
  inhibition: 8.38% (inactive)
Assay 3, at 18.44 µM
  inhibition: 13.5% (inactive)

## O=C1C=C(Nc2ccccc2)c2ccccc2C1=O
Assay 1, at 6.87 µM
  inhibition: 22.4%
Assay 2, at 6.87 µM
  inhibition: 52.9%

## CCOC(=O)N=Nc1c2ccccc2c2nc3no[nH]c3nc12
Assay 1, at 2.35 µM
  inhibition: 8.81% (inactive)
Assay 2, at 2.35 µM
  inhibition: 13.6% (inactive)
Assay 3, at 4.7 µM
  inhibition: 25.3%

## COc1cc(Br)c(C(=O)c2nccc3cc(OC)c(OC)cc23)cc1OC
Assay 1, at 0.27 µM
  inhibition: 31.9%
Assay 2, at 0.27 µM
  inhibition: 25.2%

## O=C(c1ccco1)[C@@H]1[C@@H]2C(=O)N(c3ccc(Br)cc3)C(=O)[C@@H]2C2c3ccccc3C=CN21 (some centres not stated)
Assay 1, at 5.26 µM
  inhibition: -13.1% (inactive)
Assay 2, at 5.26 µM
  inhibition: 37.6%

## Cc1c(Cl)cnc(NC(=O)COC(=O)c2ccc([N+](=O)[O-])s2)c1Cl
Assay 1, at 7.08 µM
  inhibition: 9.06% (inactive)
Assay 2, at 7.08 µM
  inhibition: 5.86% (inactive)
Assay 3, at 14.16 µM
  inhibition: 14.2% (inactive)

## COC1=C(N)C(=O)c2nc(C)ccc2C1=O
Assay 1, at 1.37 µM
  inhibition: 16.7% (inactive)
Assay 2, at 1.37 µM
  inhibition: 50.9%

## O=c1[nH]c(Nc2ccccc2)cc2cc(Br)ccc12
Assay 2, at 1 µM
  inhibition: 34.1%
Assay 3, at 2 µM
  inhibition: 42.6%

## O=C(OCc1nnc(-c2ccccc2)o1)c1ccc([N+](=O)[O-])s1
Assay 1, at 7.52 µM
  inhibition: 3.79% (inactive)
Assay 2, at 7.52 µM
  inhibition: -3.16% (inactive)
Assay 3, at 15.04 µM
  inhibition: 25%

## O=C1Cc2ccccc2C(=O)N1
Assay 1, at 0.4 µM
  inhibition: 38.8%
Assay 2, at 0.4 µM
  inhibition: 54.3%

## O=C(COC(=O)c1ccc([N+](=O)[O-])s1)Nc1ccccc1
Assay 2, at 10.31 µM
  inhibition: 8.51% (inactive)
Assay 3, at 20.62 µM
  inhibition: 4.9% (inactive)

## Cc1ccc2c(c1C)-c1c(ccc(C)c1C)C(=O)C2=O
Assay 1, at 7.79 µM
  inhibition: -37.1% (inactive)
Assay 2, at 7.79 µM
  inhibition: 18% (inactive)
Assay 3, at 15.58 µM
  inhibition: 38.4%

## O=C(O)CSc1cc(NS(=O)(=O)c2cccc([N+](=O)[O-])c2)c2ccccc2c1O
Assay 1, at 2.44 µM
  inhibition: -7.65% (inactive)
Assay 2, at 2.44 µM
  inhibition: 5.22% (inactive)
Assay 3, at 4.88 µM
  inhibition: 13.1% (inactive)

## Cc1ccc(N2C(=O)[C@@H]3[C@H](C2=O)C2c4ccccc4C=CN2[C@@H]3C(=O)c2ccco2)cc1 (some centres not stated)
Assay 1, at 4.21 µM
  inhibition: 8.15% (inactive)
Assay 2, at 4.21 µM
  inhibition: 18.6% (inactive)
Assay 3, at 8.42 µM
  inhibition: 44.7%

## CN(C1=C(NC(=O)c2ccccc2)C(=O)c2ccccc2C1=O)C1CCS(=O)(=O)C1 (configuration not stated)
Assay 1, at 2.43 µM
  inhibition: 54.2%
Assay 2, at 2.43 µM
  inhibition: 22.7%

## O=C(O)CSc1cc(NS(=O)(=O)c2ccc(Cl)cc2)c2ccccc2c1O
Assay 1, at 5 µM
  inhibition: 6.76% (inactive)
Assay 2, at 5 µM
  inhibition: 8.14% (inactive)
Assay 3, at 10 µM
  inhibition: 7.8% (inactive)
